Values joined by “and” are separate entries in the source; they are usually repeats but may differ in a detail not shown here. Identical values can stand only once. Inconclusive results and toxic doses are left out. Residues, ends and D or L forms follow the SMILES beside them.
Tested on: BDF1 mice, P388 leukemia ip, median survival T/C
Assay: NCI In Vivo Anticancer Drug Screen. Data for tumor model P388 Leukemia (intraperitoneal) in B6D2F1 (BDF1) mice
Conditions: endpoint: median survival time, higher = longer survival
Method: The antitumor activity of compounds was measured in mice bearing transplantable tumors. Survival or tumor size were measured and the results are expressed as the measurement made in the treated group (T) divided by the measurement made in the vehicle treated control group (C). The tumor model used in this assay is P388 Leukemia (intraperitoneal) in B6D2F1 (BDF1) mice

[1] = dose: 100.0 mg/kg/injection, schedule: Q04DX003 (ip), vehicle: saline with Tween-80
[2] = dose: 200.0 mg/kg/injection, schedule: Q04DX003 (ip), vehicle: saline with Tween-80
[3] = dose: 100.0 mg/kg/injection, schedule: Q04DX003 (ip), vehicle: Klucel (hydroxypropylcellulose) (HPC)

In the case of `c1ccc(CN2CCn3nccc32)cc1`, the T/C (dose: 6.25 mg/kg/injection, schedule: Q01DX009 (ip), vehicle: other) is reported as 98 % of control, the T/C (dose: 12.5 mg/kg/injection, schedule: Q01DX009 (ip), vehicle: other) is reported as 90 % of control and the T/C (dose: 12.5 mg/kg/injection, schedule: Q04DX003 (ip), vehicle: other) is reported as 104 % of control. For the same compound, the T/C (dose: 25.0 mg/kg/injection, schedule: Q01DX009 (ip), vehicle: other) was 91 % of control, the T/C (dose: 25.0 mg/kg/injection, schedule: Q04DX003 (ip), vehicle: other) was 91 % of control and the T/C (dose: 50.0 mg/kg/injection, schedule: Q01DX009 (ip), vehicle: other) was 94 % of control. The T/C (dose: 50.0 mg/kg/injection, schedule: Q04DX003 (ip), vehicle: other) was 91 % of control, the T/C (dose: 100.0 mg/kg/injection, schedule: Q01DX009 (ip), vehicle: other) was 92 % of control and the T/C (dose: 100.0 mg/kg/injection, schedule: Q04DX003 (ip), vehicle: other) was 92 % of control. The T/C (dose: 200.0 mg/kg/injection, schedule: Q04DX003 (ip), vehicle: other) was 96 % of control.
For `CCN=C(N)Nc1ccc(NC(=O)c2ccc(C(=O)Nc3ccc(NC(N)=NCC)cc3)cc2)cc1`, the T/C (dose: 16.5 mg/kg/injection, schedule: Q04DX003 (ip), vehicle: saline with Tween-80) was 213 % of control, the T/C (dose: 25.0 mg/kg/injection, schedule: Q04DX003 (ip), vehicle: saline with Tween-80) was 218 % of control and the T/C (dose: 37.5 mg/kg/injection, schedule: Q04DX003 (ip), vehicle: saline with Tween-80) was 109 % of control. For the same compound, the T/C [1] was 168 % of control and the T/C [2] was 86 % of control.
In the case of `N#CSc1ncnc2nc[nH]c12`, the T/C (dose: 3.0 mg/kg/injection, schedule: Q01DX009 (ip), vehicle: alkali diluted with saline) is reported as 110 % of control, the T/C (dose: 3.0 mg/kg/injection, schedule: Q04DX003 (ip), vehicle: alkali diluted with saline) is reported as 100 % of control and the T/C (dose: 4.0 mg/kg/injection, schedule: Q01DX009 (ip), vehicle: alkali diluted with saline) is reported as 95 % of control. For the same compound, the T/C (dose: 6.0 mg/kg/injection, schedule: Q01DX009 (ip), vehicle: alkali diluted with saline) was 116 % of control, the T/C (dose: 6.0 mg/kg/injection, schedule: Q04DX003 (ip), vehicle: alkali diluted with saline) was 95 % of control and the T/C (dose: 9.0 mg/kg/injection, schedule: Q01DX009 (ip), vehicle: alkali diluted with saline) was 95 % of control. For the same compound, the T/C (dose: 12.0 mg/kg/injection, schedule: Q01DX009 (ip), vehicle: alkali diluted with saline) was 120 % of control and the T/C (dose: 12.0 mg/kg/injection, schedule: Q04DX003 (ip), vehicle: alkali diluted with saline) was 100 % of control and 113 % of control.
`O=C1CCC(N2C(=O)c3ccccc3C2=O)C(=O)N1` (stereo not given) was tested, and the T/C (dose: 100.0 mg/kg/injection, schedule: Q01DX010 (ip), vehicle: saline) was 96 % of control, the T/C (dose: 200.0 mg/kg/injection, schedule: Q01DX010 (ip), vehicle: saline) was 96 % of control and the T/C (dose: 400.0 mg/kg/injection, schedule: Q01DX010 (ip), vehicle: saline) was 92 % of control. For the same compound, the T/C (dose: 800.0 mg/kg/injection, schedule: Q01DX010 (ip), vehicle: saline) was 92 % of control.
In the case of `CCCCCCCCCCCCCCCCCCNC(=S)N/N=C/c1ccc(Cl)cc1Cl`, the T/C (dose: 50.0 mg/kg/injection, schedule: Q04DX003 (ip), vehicle: Klucel (hydroxypropylcellulose) (HPC)) is reported as 105 % of control, the T/C [3] is reported as 90 % of control and the T/C [1] is reported as 100 % of control. The T/C [2] was 100 % of control and the T/C (dose: 400.0 mg/kg/injection, schedule: Q04DX003 (ip), vehicle: saline with Tween-80) was 100 % of control.
`CC(N)C(=O)NC(C)C(=O)NC(C)C(=O)NC(C)C(=O)O` (stereo not given) (H-AAAA-OH; configuration not given here) was tested, and the T/C (dose: 50.0 mg/kg/injection, schedule: Q01DX005 (ip), vehicle: saline) was 93 % of control, the T/C (dose: 100.0 mg/kg/injection, schedule: Q01DX005 (ip), vehicle: saline) was 98 % of control and the T/C (dose: 200.0 mg/kg/injection, schedule: Q01DX005 (ip), vehicle: saline) was 105 % of control.
`COc1ccc(C)cc1CN1NC(=O)CC1=N` was tested, and the T/C (dose: 100.0 mg/kg/injection, schedule: Q01DX009 (ip), vehicle: Klucel (hydroxypropylcellulose) (HPC)) was 100 % of control, the T/C [3] was 100 % of control and the T/C (dose: 200.0 mg/kg/injection, schedule: Q01DX009 (ip), vehicle: Klucel (hydroxypropylcellulose) (HPC)) was 109 % of control. The T/C (dose: 200.0 mg/kg/injection, schedule: Q04DX003 (ip), vehicle: Klucel (hydroxypropylcellulose) (HPC)) was 122 % of control, the T/C (dose: 400.0 mg/kg/injection, schedule: Q01DX009 (ip), vehicle: Klucel (hydroxypropylcellulose) (HPC)) was 100 % of control and the T/C (dose: 400.0 mg/kg/injection, schedule: Q04DX003 (ip), vehicle: Klucel (hydroxypropylcellulose) (HPC)) was 94 % of control.
In the case of `CSc1nc(C)cc(=O)[nH]1`, the T/C (dose: 6.25 mg/kg/injection, schedule: Q01DX009 (ip), vehicle: saline with Tween-80) is reported as 105 % of control, the T/C (dose: 12.5 mg/kg/injection, schedule: Q01DX009 (ip), vehicle: saline with Tween-80) is reported as 103 % of control and the T/C (dose: 25.0 mg/kg/injection, schedule: Q01DX009 (ip), vehicle: saline with Tween-80) is reported as 115 % of control. The T/C (dose: 50.0 mg/kg/injection, schedule: Q01DX009 (ip), vehicle: saline with Tween-80) was 108 % of control.

— PubChem BioAssay AID328 (DTP/NCI, 2004)
